Measurements reported in ChEMBL document CHEMBL3272271, “Folate antagonists. 13. 2,4-Diamino-6-](alpha,alpha,alpha-trifluoro-m-tolyl)thio]quinazoline and related 2,4-diamino-6-[(phenyl- and naphthyl)thio]quinazolines, a unique class of antimetabolites with extraordinary antimalarial and antibacterial effects” (J Med Chem, 1978).
The source made the active and inactive calls.

Columns and labels:
Format in all cases: functional, organism-based
Plasmodium gallinaceum [1] = assay: Antimalarial activity against sporozoite-induced Plasmodium gallinaceum infected in white leghorn chicken assessed as disease cure from parasite infection at 120 mg/kg, sc administered 72 hrs after infection; set-up: dose 120 mg/kg
Plasmodium gallinaceum [2] = assay: Antimalarial activity against sporozoite-induced Plasmodium gallinaceum infected in white leghorn chicken assessed as disease cure from parasite infection at 30 mg/kg, sc administered 72 hrs after infection; set-up: dose 30 mg/kg
Plasmodium gallinaceum [3] = assay: Antimalarial activity against sporozoite-induced Plasmodium gallinaceum infected in white leghorn chicken assessed as disease cure from parasite infection at 480 mg/kg, sc administered 72 hrs after infection; set-up: dose 480 mg/kg
Plasmodium gallinaceum [4] = assay: Antimalarial activity against trophozoite-induced Plasmodium gallinaceum infected in white leghorn chicken assessed as disease cure from parasite infection at 160 mg/kg, sc administered 72 hrs after infection; set-up: dose 160 mg/kg
Plasmodium gallinaceum [5] = assay: Antimalarial activity against sporozoite-induced Plasmodium gallinaceum infected in white leghorn chicken assessed as disease cure from parasite infection at 60 mg/kg, sc administered 72 hrs after infection; set-up: dose 60 mg/kg
Plasmodium gallinaceum [6] = assay: Antimalarial activity against trophozoite-induced Plasmodium gallinaceum infected in white leghorn chicken assessed as disease cure from parasite infection at 80 mg/kg, sc administered 72 hrs after infection; set-up: dose 80 mg/kg
Plasmodium gallinaceum [7] = assay: Antimalarial activity against sporozoite-induced Plasmodium gallinaceum infected in white leghorn chicken assessed as disease cure from parasite infection at 7.5 mg/kg, sc administered 72 hrs after infection; set-up: dose 7.5 mg/kg
Plasmodium gallinaceum [8] = assay: Antimalarial activity against sporozoite-induced Plasmodium gallinaceum infected in white leghorn chicken assessed as disease cure from parasite infection at 15 mg/kg, sc administered 72 hrs after infection; set-up: dose 15 mg/kg
Plasmodium berghei [9] = assay: Antimalarial activity against Plasmodium berghei infected in mouse assessed as disease cure from parasite infection at 320 mg/kg, sc administered 72 hrs after infection; set-up: dose 320 mg/kg
Plasmodium gallinaceum [10] = assay: Antimalarial activity against sporozoite-induced Plasmodium gallinaceum infected in white leghorn chicken assessed as disease cure from parasite infection at 240 mg/kg, sc administered 72 hrs after infection; set-up: dose 240 mg/kg
Plasmodium gallinaceum [11] = assay: Antimalarial activity against trophozoite-induced Plasmodium gallinaceum infected in white leghorn chicken assessed as disease cure from parasite infection at 320 mg/kg, sc administered 72 hrs after infection; set-up: dose 320 mg/kg
Plasmodium berghei [12] = assay: Antimalarial activity against Plasmodium berghei infected in mouse assessed as disease cure from parasite infection at 640 mg/kg, sc administered 72 hrs after infection; set-up: dose 640 mg/kg
Plasmodium berghei [13] = assay: Antimalarial activity against Plasmodium berghei infected in mouse assessed as disease cure from parasite infection at 160 mg/kg, sc administered 72 hrs after infection; set-up: dose 160 mg/kg
Plasmodium gallinaceum [14] = assay: Antimalarial activity against trophozoite-induced Plasmodium gallinaceum infected in white leghorn chicken assessed as disease cure from parasite infection at 40 mg/kg, sc administered 72 hrs after infection; set-up: dose 40 mg/kg

Measured: Activity

Nc1nc(N)c2cc(NCc3ccc(Cl)c(Cl)c3)ccc2n1
active: all assays above
